According to patent publication US20240309038A1, “NOVEL GALACTOSIDE INHIBITOR OF GALECTINS” (GALECTO BIOTECH AB, priority 2020, published 2024):

These compounds were tested against Gal-3 (Homo sapiens, UniProt P17931) (assay: Fluorescence anisotropy assay, inhibition of galectin / fluorescein tagged saccharide probe interaction).
Gal-3, sequence (P17931 whole entry, species assumed): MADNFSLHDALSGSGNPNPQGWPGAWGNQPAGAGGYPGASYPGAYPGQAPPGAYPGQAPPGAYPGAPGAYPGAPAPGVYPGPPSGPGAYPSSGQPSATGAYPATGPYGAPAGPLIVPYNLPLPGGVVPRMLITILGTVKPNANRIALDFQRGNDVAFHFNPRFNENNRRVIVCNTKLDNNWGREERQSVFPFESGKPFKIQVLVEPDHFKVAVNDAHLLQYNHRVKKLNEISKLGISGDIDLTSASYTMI
Assay type: binding
Experimental: The affinity of Example 1-59 for galectins were determined by a fluorescence anisotropy assay where the compound was used as an inhibitor of the interaction between galectin and a fluorescein tagged saccharide probe as described Sörme, P., Kahl-Knutsson, B., Huflejt, M., Nilsson, U. J., and Leffler H. (2004) Fluorescence polarization as an analytical tool to evaluate galectin-ligand interactions. Anal. Biochem. 334: 36-47, (Sarme et al., 2004)
`Cc1nc([C@@H]2OC(CO)[C@H](O)C(n3cc(-c4cc(F)c(F)c(F)c4)cn3)C2O)n(-c2ccc3ncsc3c2)n1` (stereo in doubt) [Example 34, 6-{5-{3-Deoxy-3-[4-(3,4,5-trifluorophenyl)-1H-1,2-pyrazol-1-yl]-β-D-galactopyranosyl}-3-methyl-1H-1,2,4-triazol-1-yl}benzothiazole] showed a Kd of 9 nM.
`COc1ccccc1-c1nn(C2C(O)[C@H](c3nc(C)nn3-c3cc(Cl)ccc3C(F)(F)F)OC(CO)[C@@H]2O)cc1-c1cc(F)c(F)c(F)c1` (stereo in doubt) [Example 52, 5-Chloro-1-{5-{3-deoxy-3-[4-(3,4,5-trifluorophenyl)-3-(2-methoxyphenyl)-1H-1,2-pyrazol-1-yl]-β-D-galactopyranosyl}-3-methyl-1H-1,2,4-triazol-1-yl}-2-(trifluoromethyl)benzene] gave a Kd of 20 nM.
Work on `Cc1nc([C@@H]2OC(CO)[C@H](O)C(n3cc(-c4cc(F)c(F)c(F)c4)c(-c4ccccc4C)n3)C2O)n(-c2cc(Cl)ccc2C(F)(F)F)n1` (stereo in doubt) [Example 53, 5-Chloro-1-{5-{3-deoxy-3-[4-(3,4,5-trifluorophenyl)-3-(2-methylphenyl)-1H-1,2-pyrazol-1-yl]-β-D-galactopyranosyl}-3-methyl-1H-1,2,4-triazol-1-yl}-2-(trifluoromethyl)benzene] yielded a Kd of 92 nM.
In the case of `Cc1nc([C@@H]2OC(CO)[C@H](O)C(n3cc(-c4cc(F)c(F)c(F)c4)cn3)[C@@H]2O)n(-c2cnc(C#N)c(Cl)c2)n1` (stereo partly drawn) [Example 23, 3-Chloro-2-cyano-5-{5-{3-deoxy-3-[4-(3,4,5-trifluorophenyl)-1H-1,2-pyrazol-1-yl]-β-D-galactopyranosyl}-3-methyl-1H-1,2,4-triazol-1-yl}pyridine], the Kd is reported as 240 nM.
In the case of `Cc1nc([C@@H]2OC(CO)[C@H](O)C(n3cc(-c4cc(F)c(F)c(F)c4)cn3)C2O)n(-c2cc3sc(C)nc3cc2Br)n1` (stereo in doubt) [Example 43, 5-Bromo-6-{5-{3-deoxy-3-[4-(3,4,5-trifluorophenyl)-1H-1,2-pyrazol-1-yl]-β-D-galactopyranosyl}-3-methyl-1H-1,2,4-triazol-1-yl}-2-methylbenzothiazole], the Kd is reported as 11 nM.
For `Cc1nc([C@@H]2OC(CO)[C@H](O)C(n3cc(-c4cc(F)c(F)c(F)c4)cn3)C2O)n(-c2cc(-c3cc(F)c(F)c(F)c3)ccc2C(F)(F)F)n1` (stereo in doubt) [Example 4, 1-{5-{3-Deoxy-3-[4-(3,4,5-trifluorophenyl)-1H-1,2-pyrazol-1-yl]-β-D-galactopyranosyl}-3-methyl-1H-1,2,4-triazol-1-yl}-2-(trifluoromethyl)-2-(3,4,5-trifluorophenyl)benzene], the Kd was 200 nM.
For `Cc1nc([C@@H]2OC(CO)[C@H](O)C(n3cc(-c4ccc(Cl)cc4)cn3)C2O)n(-c2cc(Cl)ccc2C(F)(F)F)n1` (stereo in doubt) [Example 59, 1-{5-{3-[4-(4-Chlorophenyl)-1H-1,2-pyrazol-1-yl]-3-deoxy-β-D-galactopyranosyl}-3-methyl-1H-1,2,4-triazol-1-yl}-5-chloro-2-(trifluoromethyl)benzene], the Kd was 51 nM.
Compound `Cc1nc([C@@H]2OC(CO)[C@H](O)C(n3cc(-c4cc(F)c(F)c(F)c4)cn3)C2O)n(-c2cc(Cl)ccc2C#N)n1` (stereo in doubt) [Example 27, 5-Chloro-2-cyano-1-{5-{3-deoxy-3-[4-(3,4,5-trifluorophenyl)-1H-1,2-pyrazol-1-yl]-β-D-galactopyranosyl}-3-methyl-1H-1,2,4-triazol-1-yl}benzene] has a Kd of 37 nM.
With `Cc1nc([C@@H]2OC(CO)[C@H](O)C(n3cc(-c4cc(F)c(F)c(F)c4)cn3)C2O)n(-c2cc(Cl)c3nc(C)sc3c2)n1` (stereo in doubt) [Example 41, 4-Chloro-6-{5-{3-deoxy-3-[4-(3,4,5-trifluorophenyl)-1H-1,2-pyrazol-1-yl]-β-D-galactopyranosyl}-3-methyl-1H-1,2,4-triazol-1-yl}-2-methylbenzothiazole] the Kd was 10 nM.
`Cc1nc([C@@H]2OC(CO)[C@H](O)C(n3cc(-c4cc(F)c(F)c(F)c4)c(Cc4ccccc4)n3)C2O)n(-c2cc(Cl)ccc2C(F)(F)F)n1` (stereo in doubt) [Example 50, 1-{5-{3-[3-Benzyl-4-(3,4,5-trifluorophenyl)-1H-1,2-pyrazol-1-yl]-3-deoxy-β-D-galactopyranosyl}-3-methyl-1H-1,2,4-triazol-1-yl}-5-chloro-2-(trifluoromethyl)benzene] showed a Kd of 36 nM.
In the case of `Cc1nc([C@@H]2OC(CO)[C@H](O)C(n3cc(-c4cc(F)c(F)c(F)c4)c(-c4cccc(F)c4)n3)C2O)n(-c2cc(Cl)ccc2C(F)(F)F)n1` (stereo in doubt) [Example 54, 5-Chloro-1-{5-{3-deoxy-3-[4-(3,4,5-trifluorophenyl)-3-(3-fluorophenyl)-1H-1,2-pyrazol-1-yl]-β-D-galactopyranosyl}-3-methyl-1H-1,2,4-triazol-1-yl}-2-(trifluoromethyl)benzene], the Kd is reported as 240 nM.
`Cc1nc([C@@H]2OC(CO)[C@H](O)C(n3cc(-c4cc(F)c(F)c(F)c4)cn3)C2O)n(-c2cc(C#N)ccc2C(F)(F)F)n1` (stereo in doubt) [Example 46, 5-Cyano-1-{5-{3-deoxy-3-[4-(3,4,5-trifluorophenyl)-1H-1,2-pyrazol-1-yl]-β-D-galactopyranosyl}-3-methyl-1H-1,2,4-triazol-1-yl}-2-(trifluoromethyl)benzene] gave a Kd of 19 nM.
`Cc1nc([C@@H]2OC(CO)[C@H](O)C(n3cc(-c4cc(F)c(Cl)c(F)c4)c(C(=O)O)n3)C2O)n(-c2cc(Cl)ccc2C(F)(F)F)n1` (stereo in doubt) [Example 30, 1-{5-{3-[3-Carboxy-4-(4-chloro-3,5-difluorophenyl)-1H-1,2-pyrazol-1-yl]-3-deoxy-β-D-galactopyranosyl}-3-methyl-1H-1,2,4-triazol-1-yl}-5-chloro-2-(trifluoromethyl)benzene] was tested, and the Kd was 6 nM.
Compound `Cc1nc([C@@H]2OC(CO)[C@H](O)C(n3cc(-c4cc(F)c(F)c(F)c4)cn3)C2O)n(-c2cc(Cl)cnc2C(F)(F)F)n1` (stereo in doubt) [Example 20, 5-Chloro-3-{5-{3-deoxy-3-[4-(3,4,5-trifluorophenyl)-1H-1,2-pyrazol-1-yl]-β-D-galactopyranosyl}-3-methyl-1H-1,2,4-triazol-1-yl}-2-(trifluoromethyl)pyridine] has a Kd of 11 nM.
Work on `Cc1nc([C@@H]2OC(CO)[C@H](O)C(n3cc(-c4cc(F)c(F)c(F)c4)cn3)C2O)n(-c2cnc3nc(C)sc3c2)n1` (stereo in doubt) [Example 45, 6-{5-{3-Deoxy-3-[4-(3,4,5-trifluorophenyl)-1H-1,2-pyrazol-1-yl]-β-D-galactopyranosyl}-3-methyl-1H-1,2,4-triazol-1-yl}-2-methylthiazolo[4,5-b]pyridine] yielded a Kd of 35 nM.
